# US9155724B2, “Combination methods for treatment of disease” (Whitehead Institute for Biomedical Research, priority 2010, dated 2015)
# Structures can show the parent of a compound that is named as a salt.
# Key:
# c-Myc = c-Myc (Homo sapiens, UniProt P01106); details: relative to parent compound 10058-F4; cited from earlier work
# HL60 cells = details: read-out: IC50 on HL60 cells (growth inhibition); cited from earlier work
# c-Myc/Max [1] = target: T1, c-Myc/Max (Mus musculus, UniProt P01108); test: Western blot of 10058-F4-treated mES cells; type: cell-based, murine
# T1 construct: endogenous in cells; host or cells: V6.5 (C57BL/6-129) murine ES cells
# Protocol: FIGS. 6A to 6E. c-Myc inhibition effects transcription at the pause release step. (A) RNA was extracted from mES cells treated with 10058-F4 or vehicle alone (DMSO) for 6 hours and used to generate cDNA using reverse transcription. Expression change was calculated for 10058-F4 treated cells compared vehicle alone control for two non-c-Myc target genes (Brg1, Rnf2-green) and five c-Myc target genes (Bax, Nol5, Zfp451, Brca2 and Atic—blue) from two independent experiments. Error bars represent s.d. from triplicate qPCR reactions. (B) mES cells were treated with 10058-F4 for either 1.5, 6 or 12 hours. Extracts were analyzed using Western blot using antibodies against Pol II Ser2P CTD, Pol II Ser5P CTD and Cdk9 to determine the levels of the modified forms of Pol II. TBP was used as a loading control. (C) Pol II ChIP-seq binding profiles in mES cells treated with 10058-F4 (c-Myc/Max inhibitor; blue), vehicle alone (black), or flavopiridol (P-TEFb inhibitor; red). Pol II occupancy is shown for three c-Myc target genes (Ncl, Npm1 and Nol5) and two non-cMyc target gene (Txnip and Chpf2). Cells were treated with 10058-F4 or DMSO for 6 hours. See also FIG. 14. (D) Average Pol II binding plots for the high confidence cMyc targets and non-c-Myc target genes in no drug (black), and 10058-F4 treatment (blue). […] The right panel is a close up of the transcribed region to show the difference in amounts of elongating Pol II density under the different conditions. […]
# FIGS. 14A to 14F. […] Max ChIP DNA was analyzed using qPCR at the selected binding sites and enrichment was calculated for replicate PCR reactions over input DNA at each region. […] Protein extracts were analyzed using Western blots and probed with antibodies against CycT1 and Cdk9. […] ES cells were infected for 24 hours, then selected for 72 hours prior to harvesting. c-Myc levels were determined using RT-PCR analysis and normalized against a Gapdh control. […] ES cells were infected for 24 hours, then selected for 72 hours prior to harvesting. c-Myc levels were determined using Western blot analysis using an antibody against c-Myc. […]
# c-Myc/Max [2] = target: T1, c-Myc/Max; test: Pol II ChIP-seq / traveling ratio in 10058-F4-treated mES cells; type: cell-based, murine; details: 50 μM for 6 hours
# Protocol: FIGS. 6A to 6E. c-Myc inhibition effects transcription at the pause release step. (A) RNA was extracted from mES cells treated with 10058-F4 or vehicle alone (DMSO) for 6 hours and used to generate cDNA using reverse transcription. Expression change was calculated for 10058-F4 treated cells compared vehicle alone control for two non-c-Myc target genes (Brg1, Rnf2-green) and five c-Myc target genes (Bax, Nol5, Zfp451, Brca2 and Atic—blue) from two independent experiments. Error bars represent s.d. from triplicate qPCR reactions. (B) mES cells were treated with 10058-F4 for either 1.5, 6 or 12 hours. Extracts were analyzed using Western blot using antibodies against Pol II Ser2P CTD, Pol II Ser5P CTD and Cdk9 to determine the levels of the modified forms of Pol II. TBP was used as a loading control. (C) Pol II ChIP-seq binding profiles in mES cells treated with 10058-F4 (c-Myc/Max inhibitor; blue), vehicle alone (black), or flavopiridol (P-TEFb inhibitor; red). Pol II occupancy is shown for three c-Myc target genes (Ncl, Npm1 and Nol5) and two non-cMyc target gene (Txnip and Chpf2). Cells were treated with 10058-F4 or DMSO for 6 hours. See also FIG. 14. (D) Average Pol II binding plots for the high confidence cMyc targets and non-c-Myc target genes in no drug (black), and 10058-F4 treatment (blue). […] The right panel is a close up of the transcribed region to show the difference in amounts of elongating Pol II density under the different conditions. Also included in the right panel for comparison is elongating Pol II density following flavopiridol treatment (red). (E) Pol II traveling ratio (TR) as described in FIG. 1C for the high confidence c-Myc target genes and non-c-Myc target genes following 10058-F4 treatment (blue) or no drug (black). The left panel is the TR for the c-Myc targets and right panel is the TR for non-c-Myc targets. Higher TR values indicate a higher degree of pausing in this gene set.
# If c-Myc regulates pause release, then inhibition by 10058-F4 should have an effect on Pol II levels in promoter and gene bodies similar to that of flavopiridol, but only at c-Myc occupied genes. […]
# We carried out a more global analysis of the effect of 10058-F4 on Pol II occupancy of genes bound by c-Myc and compared these patterns to genes that are not bound by this factor but show evidence of elongation (FIG. 6D). […] A similar shift in TR at the c-Myc target genes was also detected following c-Myc shRNA knockdown, indicating genes become more paused (FIG. 14F). […]
# RNAPolII—10058F4Treated_Tracks.WIG.gz—contains two ChIP-seq datasets mapped to mouse genome mm8 using a +200 bp extension model that can be uploaded to the UCSC genome browser to view binding events. The ChIP experiments were done using the N20 Pol II antibody (sc-899) to determined total Pol II occupancy. […]
# c-Myc/Max [3] = target: T1, c-Myc/Max; test: expression analysis (quantitative PCR) in 10058-F4-treated mES cells; type: cell-based, murine; details: 50 μM for 6 hours
# Protocol: FIGS. 6A to 6E. c-Myc inhibition effects transcription at the pause release step. (A) RNA was extracted from mES cells treated with 10058-F4 or vehicle alone (DMSO) for 6 hours and used to generate cDNA using reverse transcription. Expression change was calculated for 10058-F4 treated cells compared vehicle alone control for two non-c-Myc target genes (Brg1, Rnf2-green) and five c-Myc target genes (Bax, Nol5, Zfp451, Brca2 and Atic—blue) from two independent experiments. Error bars represent s.d. from triplicate qPCR reactions. (B) mES cells were treated with 10058-F4 for either 1.5, 6 or 12 hours. Extracts were analyzed using Western blot using antibodies against Pol II Ser2P CTD, Pol II Ser5P CTD and Cdk9 to determine the levels of the modified forms of Pol II. TBP was used as a loading control. […]
# To more directly test whether c-Myc regulates pause release and the associated Pol II CTD phosphorylation at Ser2, we used a low molecular weight inhibitor of c-Myc/Max, 10058-F4, which inhibits c-Myc/Max heterodimerization both in vitro and in vivo (Hammoudeh et al., 2009; Wang et al., 2007; Yin et al., 2003). Max co-occupies c-Myc binding sites as determined by ChIP, confirming that c-Myc and Max function together at target genes in ES cells (FIG. 14A). […]
# [4] = test system: c-Myc-dependent oncogenic transformation of chicken embryo fibroblasts; details: at 20 μM; cited from earlier work
# [5] = cited from earlier work
# P-TEFb [6] = target: T2, P-TEFb (Mus musculus, UniProt Q99J95); test: Spt5 and NelfA ChIP-chip in flavopiridol-treated mES cells; type: cell-based, murine; details: flavopiridol for 60 minutes
# T2 construct: endogenous in cells; host or cells: V6.5 (C57BL/6-129) murine ES cells
# Protocol: (A) Pairwise correlation analysis of Spt5, NelfA and Pol II (all) ChIP-seq occupancy in mES cells. […] (B) Western blot analysis of mES cells treated with 1 mM flavopiridol or control for 60 minutes prior. […] (C) Average gene binding for NelfA and Spt5 following 1 mM flavopiridol (red) or control (black) for 60 minutes in mES cells. The average ChIP-chip enrichment was determined in each bin (250 bp) in each condition and plotted from −4 kb to +2 kb.
# We used ChIP-chip to determine if Spt5 and NelfA co-occupy promoter proximal sites with Pol II when P-TEFb activity is inhibited by flavopiridol.
# Purified immunoprecipitated DNA was amplified using two rounds of ligation mediated PCR (LM PCR), as described in (Lee et al., 2006b) and the Agilent Mammalian ChIP-on-chip protocol (version 9.1, November 2006). LM-PCR immunoprecipitated DNA was labeled with Cy5, LM-PCR input DNA was labeled with Cy3 using Invitrogen Bioprime random primer labeling kit. For microarray hybridization, the Agilent Mammalian ChIP-on-chip protocol (version 9.1, November 2006) was followed. In brief, mouse Cotl DNA, Agilent blocking buffer (1× final conc.), Agilent hybridization buffer (1× final conc.), was added to Cy5- and Cy3-labeled DNA. The mixture was incubated at 95° C. for 3 minutes, followed by 37° C. for 30 minutes. Sample was centrifuged for 1 min and sample was hybridized to Agilent DNA microarray. […]
# P-TEFb [7] = target: T2, P-TEFb; test: Western blot of P-TEFb target phosphorylation in flavopiridol-treated mES cells; type: cell-based, murine; details: 1 μM flavopiridol, within 60 min
# Protocol: (A) mES cells were treated with 1 μM flavopiridol for the indicated time.
# (A) mES cells were treated with the indicated flavopiridol concentration or DMSO alone (−), for 60 minutes.
# To assess the role of P-TEFb-dependent pause release in global transcriptional control, we repeated the ChIP-Seq experiment for total Pol II in mES cells treated with flavopiridol, an inhibitor of Cdk9 kinase activity (Chao et al., 2000; Chao and Price, 2001; Ni et al., 2004).
# V6.5 (C57BL/6-129) murine ES cells were grown under typical mES conditions on irradiated mouse embryonic fibroblasts (MEFs). […] For location analysis on mES cells following treatment with small molecule inhibitors, cells were grown two passages off feeders and prior to formaldehyde crosslinking, the cells were treated by addition of the indicated final concentration of flavopiridol (1 μM for 1 hour for ChIP-chip and ChIP-seq experiments, or the indicated concentration and time for Western blot analysis), or c-Myc/Max inhibitor 10058-F4 (50 μM for 6 hours), both dissolved in DMSO, to the growth medium. As a control, vehicle alone (DMSO) was added to the growth medium at the same final volume as with drug. Small molecule inhibitors used were: Flavopiridol (Sigma cat #F3055), and c-Myc inhibitor 10058-F4 (Sigma cat #F3680).
# Western blots were done following standard protocols. Antibodies used for Western blots were as follows: Spt5: gift of Yuki Yamaguchi and Hiroshi Handa (Wada et al., 1998); NelfA: gift of Yuki Yamaguchi and Hiroshi Handa; Cdk9: Santa Cruz sc-484 and sc-8338, Ser2P Pol II: Abcam (H5 clone) ab24758; Ser5P Pol II: Abcam ab5131; Brg1: Santa Cruz sc-10768; Max: Santa Cruz sc-197; c-Myc: Santa Cruz-764; Cyclin T1: gift of David Price; Oct4: Santa Cruz sc-5279; and TBP: Abcam ab818.
# P-TEFb [8] = target: T2, P-TEFb; test: Pol II ChIP-seq / traveling ratio in flavopiridol-treated mES cells; type: cell-based, murine
# Protocol: (A) mES cells were treated with 1 μM flavopiridol for the indicated time. […] (B) RNA Pol II (all) ChIP-seq analysis in mES cells treated with control (DMSO for 60 minutes, black) or flavopiridol (1 μM for 60 minutes, red). […] Higher TR values indicate a higher degree of pausing.
# To assess the role of P-TEFb-dependent pause release in global transcriptional control, we repeated the ChIP-Seq experiment for total Pol II in mES cells treated with flavopiridol, an inhibitor of Cdk9 kinase activity (Chao et al., 2000; Chao and Price, 2001; Ni et al., 2004). […] If Pol II pause release is required at transcribed genes, we would expect that in the presence of flavopiridol, Pol II molecules would remain associated with promoter proximal pause sites but be depleted from DNA further downstream. […] We analyzed traveling ratios to further evaluate changes in Pol II occupancy genome-wide.
# V6.5 (C57BL/6-129) murine ES cells were grown under typical mES conditions on irradiated mouse embryonic fibroblasts (MEFs). For location analysis, cells were grown for two passages off of MEFs, on gelatinized tissue-culture plates. […]
# To quantify this effect, we have developed a measure called Traveling Ratio (TR) that compares the ratio between Pol II density in the promoter and in the gene region. […]
# [9] = cited from earlier work; remark: listed apart in the source
# [10] = ES cells treated with 10058-F4 for 1.5, 6 or 12 hours
# T1 sequence (P01108 whole entry): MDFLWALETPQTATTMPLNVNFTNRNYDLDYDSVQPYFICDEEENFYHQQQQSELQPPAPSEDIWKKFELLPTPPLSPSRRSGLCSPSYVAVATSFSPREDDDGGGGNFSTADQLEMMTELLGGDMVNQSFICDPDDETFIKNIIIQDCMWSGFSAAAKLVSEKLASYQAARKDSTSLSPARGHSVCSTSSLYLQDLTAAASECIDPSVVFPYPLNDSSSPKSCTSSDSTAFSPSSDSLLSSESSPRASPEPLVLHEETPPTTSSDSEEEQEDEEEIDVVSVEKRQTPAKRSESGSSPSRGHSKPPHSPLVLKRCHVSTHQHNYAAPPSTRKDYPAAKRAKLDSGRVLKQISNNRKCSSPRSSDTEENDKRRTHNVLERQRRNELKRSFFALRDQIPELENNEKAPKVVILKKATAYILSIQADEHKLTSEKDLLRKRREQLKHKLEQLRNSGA
# T2 sequence (Q99J95 whole entry): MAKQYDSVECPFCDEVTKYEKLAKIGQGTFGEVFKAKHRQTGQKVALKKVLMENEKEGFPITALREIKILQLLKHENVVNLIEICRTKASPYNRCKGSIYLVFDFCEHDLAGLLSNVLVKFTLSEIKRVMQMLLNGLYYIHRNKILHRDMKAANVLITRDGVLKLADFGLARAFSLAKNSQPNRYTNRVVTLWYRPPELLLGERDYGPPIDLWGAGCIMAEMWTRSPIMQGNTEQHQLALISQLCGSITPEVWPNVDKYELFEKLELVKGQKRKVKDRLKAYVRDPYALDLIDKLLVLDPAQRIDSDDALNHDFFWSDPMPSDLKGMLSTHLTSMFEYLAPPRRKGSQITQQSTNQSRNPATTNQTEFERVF
# T2 sequence (Q9QWV9 whole entry partner): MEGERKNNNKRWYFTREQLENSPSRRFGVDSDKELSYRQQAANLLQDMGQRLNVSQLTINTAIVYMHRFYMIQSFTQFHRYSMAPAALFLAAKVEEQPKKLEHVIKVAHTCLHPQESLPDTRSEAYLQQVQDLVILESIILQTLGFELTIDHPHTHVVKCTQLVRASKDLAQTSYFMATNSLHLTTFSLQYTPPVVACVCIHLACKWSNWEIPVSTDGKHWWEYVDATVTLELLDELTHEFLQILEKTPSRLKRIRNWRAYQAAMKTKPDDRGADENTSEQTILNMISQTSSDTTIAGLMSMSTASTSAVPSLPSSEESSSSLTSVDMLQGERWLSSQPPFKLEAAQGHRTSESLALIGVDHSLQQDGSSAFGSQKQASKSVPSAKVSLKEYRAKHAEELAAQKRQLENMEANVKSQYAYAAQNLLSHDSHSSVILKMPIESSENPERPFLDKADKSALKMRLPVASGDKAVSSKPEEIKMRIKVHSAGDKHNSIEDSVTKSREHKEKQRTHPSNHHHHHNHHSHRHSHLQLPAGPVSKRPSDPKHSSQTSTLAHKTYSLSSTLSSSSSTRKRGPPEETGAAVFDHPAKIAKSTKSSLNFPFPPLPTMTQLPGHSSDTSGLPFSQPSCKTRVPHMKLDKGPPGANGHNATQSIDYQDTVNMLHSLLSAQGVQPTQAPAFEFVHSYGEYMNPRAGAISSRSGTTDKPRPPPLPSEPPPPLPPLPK
# c-Myc, sequence (P01106 whole entry): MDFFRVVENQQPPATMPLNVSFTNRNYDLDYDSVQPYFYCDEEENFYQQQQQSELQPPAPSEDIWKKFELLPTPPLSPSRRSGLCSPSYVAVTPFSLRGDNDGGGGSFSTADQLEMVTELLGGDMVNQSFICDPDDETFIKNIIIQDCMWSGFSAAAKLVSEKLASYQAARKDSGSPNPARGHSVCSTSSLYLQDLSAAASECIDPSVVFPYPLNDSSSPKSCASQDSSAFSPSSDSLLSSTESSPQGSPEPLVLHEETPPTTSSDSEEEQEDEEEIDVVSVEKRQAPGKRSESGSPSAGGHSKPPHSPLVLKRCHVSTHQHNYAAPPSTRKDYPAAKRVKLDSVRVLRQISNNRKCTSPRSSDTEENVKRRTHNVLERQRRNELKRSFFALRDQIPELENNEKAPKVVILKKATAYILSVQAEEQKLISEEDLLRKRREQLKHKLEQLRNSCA
smiles,measurement,setting,value
CC(C)c1ccc(/C=C2\SC(=S)N(CN3CCCCC3)C2=O)cc1 [28RH-NCN-1],inhibition of DNA binding of c-Myc,c-Myc,comparable to that of the parent compound
same,IC50,HL60 cells,29 µM
CCc1ccc(/C=C2\SC(=S)NC2=O)cc1 [10058-F4],levels of Pol II Ser2P,c-Myc/Max [1]; [10],significant reduction
same,levels of Pol II Ser5P,c-Myc/Max [1]; [10],remained unaffected
same,protein levels of P-TEFb components Cdk9 or CycT1,"c-Myc/Max [1]; mES cells, 10058-F4 for 6 hours",did not alter
same,TR at c-Myc target genes,c-Myc/Max [2],substantial increase
same,TR at non-c-Myc targets,c-Myc/Max [2],no such shift
same,Pol II density in transcribed regions,"c-Myc/Max [2]; c-Myc targets, gene body p=7.341e-06",clear reduction
same,Pol II density at promoters,"c-Myc/Max [2]; c-Myc targets, p=0.4536",little effect
same,decrease in the expression of c-Myc target genes,c-Myc/Max [3],20-40%
same,expression of two non-c-Myc target genes,c-Myc/Max [3],did not affect
same,IC50,HL60 cells,49 µM
COc1ccc(CN(C(=O)c2ccccn2)C(C(=O)NC2CCCCC2)c2ccc3cc(OCC(=O)OC(C)(C)C)ccc3c2)cc1 (centres unmarked) [NY2267],inhibition of c-Myc-dependent oncogenic transformation,[4],strongly inhibited
"CN1CC[C@H](c2c(O)cc(O)c3c(=O)cc(-c4ccccc4Cl)oc23)[C@H](O)C1 [flavopiridol, (−)-2-(2-Chlorophenyl)-5,7-dihydroxy-8-[(3S,4R)-3-hydroxy-1-methyl-4-piperidinyl]-4H-1-benzopyran-4-one hydrochloride]",main side effects,"[5]; doses achieving plasma levels of approximately 400 nM, 72 hour treatment","fatigue, venous thromboses, and diarrhea"
same,plasma flavopiridol levels,[5]; during a 72 hour treatment period,approximately 400 nM
same,Spt5 occupancy downstream of promoter proximal sites,P-TEFb [6],depleted
same,Ser5 phosphorylation of Pol II,P-TEFb [7],remained unaffected
same,phosphorylation of Pol II Ser2,P-TEFb [7],reduced phosphorylation
same,phosphorylation of Spt5,P-TEFb [7],reduced phosphorylation
same,genes with a change in Pol II TR of at least 1.5 upon drug treatment,P-TEFb [8]; 1 μM for 60 minutes,75%
same,pause release at genes that are not targets of c-Myc,"P-TEFb [8]; flavopiridol treatment, Pol II ChIP-seq",block in pause release
"CC[C@H](CO)Nc1nc(NCc2ccccc2)c2ncn(C(C)C)c2n1 [roscovitine, 2-(R)-(1-Ethyl-2-hydroxyethylamino)-6-benzylamino-9-isopropyl purine]",dose-limiting toxicities,[9]; at 800 mg b.i.d.,"grade 3 fatigue, grade 3 skin rash, grade 3 hyponatraemia and grade 4 hypokalaemia"
same,dose at which dose-limiting toxicities were seen,"[9]; patients with solid tumors, 7-day b.i.d. p.o. schedule",800 mg b.i.d.
